Measured values: PMC6115449, “Rapid and simple detection of Tamiflu-resistant influenza virus: Development of oseltamivir derivative-based lateral flow biosensor for point-of-care (POC) diagnostics” (Scientific Reports, 2018)

Tests used:
[1] = biological target: WT NA (neuraminidase of pandemic H1N1 virus A/California/07/2009) (Influenza A virus (A/California/07/2009(H1N1)), UniProt C3W6G3); assay: fluorescence NA activity assay (ex […] nm, em […] nm); format: biochemical; conditions: 37 °C, 60 min; whole virus
[2] = biological target: WT NA (neuraminidase of pandemic H1N1 virus A/California/07/2009) (Influenza A virus (A/California/07/2009(H1N1)), UniProt C3W6G3); assay: fluorescence NA inhibition assay (NA-Fluor, MUNANA); format: biochemical; conditions: MUNANA substrate; 30 min preincubation, 60 min reaction, 37 °C; whole virus 10^6 PFU/mL; ethyl ester prodrug tested as such

Row | SMILES | fluorescence NA activity assay (ex 360 nm, em 450 nm) [1] | relative NA activity [2]
1 | CC(=O)N[C@H]1[C@H]([C@H](O)[C@H](O)CO)O[C@@](Oc2ccc3c(C)cc(=O)oc3c2)(C(=O)O)C[C@@H]1O [2-(4-methylumbelliferyl)-a-D-N-acetylneuraminic acid] | (MUNANA) was used as the fluorescent substrate to determine the NA enzymatic parameters | 
2 | CCOC(=O)C1=C[C@@H](OC(CC)CC)[C@H](NC(C)=O)[C@@H](N)C1 [compound 3, oseltamivir phosphate] |  | increase in oseltamivir phosphate concentration was accompanied by its binding to WT NA and inhibition
